Results on four molecules are retold here after ChEMBL document CHEMBL1156529, “Unraveling the hidden catalytic activity of vertebrate class IIa histone deacetylases” (Proc Natl Acad Sci U S A, 2007).

Each structure is given as a SMILES string. Calls of active or inactive are those of the source. The rule behind the calls is not given here.

The subject of test [1] is Histone deacetylase 5 (Homo sapiens), Q9UQL6 [H1006Y]. The experiment in a line: Inhibition of HDAC5 H1006Y mutant expressed in HEK293 cells. Format: cell-based.
The target in test [2] is T1, Histone deacetylase 4 (Homo sapiens, UniProt P56524). As to the kind of experiment: Inhibition of HDAC4 catalytic domain expressed in HEK293 cells upto 10,000 nM by Biomol assay. The format is cell-based.
Test [3] relates to T2, Histone deacetylase 7 (Homo sapiens), Q8WUI4 [H843Y].
T2 sequence (whole entry): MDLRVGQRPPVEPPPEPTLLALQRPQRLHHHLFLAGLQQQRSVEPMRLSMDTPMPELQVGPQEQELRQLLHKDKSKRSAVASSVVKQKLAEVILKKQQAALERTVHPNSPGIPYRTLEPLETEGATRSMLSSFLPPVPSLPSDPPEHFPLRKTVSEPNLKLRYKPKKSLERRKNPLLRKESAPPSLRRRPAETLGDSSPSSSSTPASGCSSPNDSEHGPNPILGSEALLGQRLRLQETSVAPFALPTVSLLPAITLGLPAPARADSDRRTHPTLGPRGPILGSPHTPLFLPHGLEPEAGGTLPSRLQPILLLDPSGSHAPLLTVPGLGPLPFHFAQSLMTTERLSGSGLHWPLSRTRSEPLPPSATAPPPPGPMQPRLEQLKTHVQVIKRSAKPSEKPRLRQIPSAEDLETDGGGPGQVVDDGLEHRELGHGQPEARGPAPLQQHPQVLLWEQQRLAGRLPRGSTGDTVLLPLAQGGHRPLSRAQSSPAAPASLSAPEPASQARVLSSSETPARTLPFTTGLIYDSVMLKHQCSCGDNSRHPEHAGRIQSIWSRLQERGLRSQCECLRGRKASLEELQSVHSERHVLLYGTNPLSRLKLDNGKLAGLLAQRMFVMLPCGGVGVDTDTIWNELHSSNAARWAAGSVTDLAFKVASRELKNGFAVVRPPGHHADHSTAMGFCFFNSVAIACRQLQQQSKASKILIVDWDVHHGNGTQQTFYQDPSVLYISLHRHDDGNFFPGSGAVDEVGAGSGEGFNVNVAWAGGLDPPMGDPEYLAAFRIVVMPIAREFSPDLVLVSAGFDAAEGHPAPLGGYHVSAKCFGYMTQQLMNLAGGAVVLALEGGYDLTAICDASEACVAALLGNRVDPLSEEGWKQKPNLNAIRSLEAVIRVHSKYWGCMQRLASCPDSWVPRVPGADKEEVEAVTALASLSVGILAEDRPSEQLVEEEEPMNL
The experiment in a line: Inhibition of HDAC7 H843Y mutant expressed in HEK293 cells. The format is cell-based.

For test [4], the target named is T1, Histone deacetylase 4. The experiment in a line: Inhibition of flag-tagged HDAC4 expressed in HEK293 cells upto 10,000 nM by Biomol assay. Format: cell-based.
Test [5] deals with T1, Histone deacetylase 4. As to the kind of experiment: Inhibition of flag-tagged HDAC4 by Biomol assay.
Test [6] concerns the target T1, Histone deacetylase 4. As to the kind of experiment: Inhibition of flag-tagged HDAC4 by pull-down assay.

T1 sequence (P56524 whole entry, the tested form may be a part): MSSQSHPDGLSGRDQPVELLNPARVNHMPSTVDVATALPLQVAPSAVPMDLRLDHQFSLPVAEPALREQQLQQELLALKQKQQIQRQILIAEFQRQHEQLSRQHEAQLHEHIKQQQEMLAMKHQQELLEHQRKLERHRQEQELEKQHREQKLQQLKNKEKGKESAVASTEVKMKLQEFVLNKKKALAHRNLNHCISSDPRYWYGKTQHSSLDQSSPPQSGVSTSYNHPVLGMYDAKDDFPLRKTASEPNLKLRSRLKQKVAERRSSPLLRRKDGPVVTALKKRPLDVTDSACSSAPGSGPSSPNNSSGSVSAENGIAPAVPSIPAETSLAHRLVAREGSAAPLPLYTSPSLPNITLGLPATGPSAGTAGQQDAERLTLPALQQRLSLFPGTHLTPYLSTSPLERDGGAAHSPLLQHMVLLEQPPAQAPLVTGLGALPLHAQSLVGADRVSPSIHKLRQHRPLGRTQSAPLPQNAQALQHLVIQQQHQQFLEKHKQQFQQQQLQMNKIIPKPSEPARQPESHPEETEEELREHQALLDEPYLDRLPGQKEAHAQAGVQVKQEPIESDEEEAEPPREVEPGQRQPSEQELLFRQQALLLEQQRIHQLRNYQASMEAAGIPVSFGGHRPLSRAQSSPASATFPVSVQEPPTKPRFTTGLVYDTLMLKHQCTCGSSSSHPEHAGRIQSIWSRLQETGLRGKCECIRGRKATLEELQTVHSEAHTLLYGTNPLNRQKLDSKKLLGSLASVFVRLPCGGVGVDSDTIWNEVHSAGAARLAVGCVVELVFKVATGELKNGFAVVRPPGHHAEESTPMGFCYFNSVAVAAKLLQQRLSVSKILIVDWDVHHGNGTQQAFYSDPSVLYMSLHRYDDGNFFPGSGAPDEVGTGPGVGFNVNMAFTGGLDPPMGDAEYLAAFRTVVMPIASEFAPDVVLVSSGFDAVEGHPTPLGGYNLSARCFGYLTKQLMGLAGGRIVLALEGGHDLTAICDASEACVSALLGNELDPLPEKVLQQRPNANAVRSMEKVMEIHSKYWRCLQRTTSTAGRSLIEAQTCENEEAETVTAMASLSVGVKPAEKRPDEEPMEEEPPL
Chain of Histone deacetylase 5 (Homo sapiens), Q9UQL6 [H1006Y] (Q9UQL6 whole entry H1006Y, the tested form may be a part): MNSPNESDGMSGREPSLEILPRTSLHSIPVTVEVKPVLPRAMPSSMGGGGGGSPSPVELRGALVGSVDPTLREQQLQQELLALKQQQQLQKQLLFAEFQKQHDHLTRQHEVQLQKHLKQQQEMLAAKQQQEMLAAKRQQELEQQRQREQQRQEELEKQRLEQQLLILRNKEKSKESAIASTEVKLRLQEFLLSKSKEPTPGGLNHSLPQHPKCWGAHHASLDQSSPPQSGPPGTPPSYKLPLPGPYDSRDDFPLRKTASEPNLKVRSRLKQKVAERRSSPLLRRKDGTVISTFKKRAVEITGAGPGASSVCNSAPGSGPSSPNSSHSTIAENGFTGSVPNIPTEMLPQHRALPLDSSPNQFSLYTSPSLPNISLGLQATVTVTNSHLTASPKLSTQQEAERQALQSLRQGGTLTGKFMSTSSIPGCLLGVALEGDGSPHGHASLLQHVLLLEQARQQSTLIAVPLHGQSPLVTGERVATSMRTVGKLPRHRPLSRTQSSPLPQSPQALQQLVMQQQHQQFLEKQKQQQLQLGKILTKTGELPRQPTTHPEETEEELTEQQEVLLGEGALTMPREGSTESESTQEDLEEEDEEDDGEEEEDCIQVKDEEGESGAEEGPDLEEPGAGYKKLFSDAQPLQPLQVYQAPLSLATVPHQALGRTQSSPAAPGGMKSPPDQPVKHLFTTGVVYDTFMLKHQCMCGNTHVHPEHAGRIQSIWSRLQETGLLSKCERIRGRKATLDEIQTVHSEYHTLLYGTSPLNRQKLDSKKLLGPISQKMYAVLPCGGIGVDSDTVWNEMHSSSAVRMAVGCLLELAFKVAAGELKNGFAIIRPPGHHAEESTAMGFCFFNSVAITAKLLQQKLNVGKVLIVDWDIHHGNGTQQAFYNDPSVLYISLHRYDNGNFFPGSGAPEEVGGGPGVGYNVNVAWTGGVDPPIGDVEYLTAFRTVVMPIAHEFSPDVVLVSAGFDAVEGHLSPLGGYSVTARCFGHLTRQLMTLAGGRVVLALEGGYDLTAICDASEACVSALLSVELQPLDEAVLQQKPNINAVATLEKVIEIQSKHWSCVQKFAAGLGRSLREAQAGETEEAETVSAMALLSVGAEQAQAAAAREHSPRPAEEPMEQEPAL

With `CCC(=O)CCCCC[C@@H]1NC(=O)[C@H]2CCCCN2C(=O)[C@H]([C@@H](C)CC)NC(=O)[C@H](Cc2cn(OC)c3ccccc23)NC1=O`, the result (in test [1]; on Histone deacetylase 4 [2]; in test [3]; at Histone deacetylase 4 [4]) was inactive.
By IC50 is commonly meant the concentration that gives 50% inhibition. Low values mean higher potency, high ones lower potency. For the molecule `CCC(=O)CCCCC[C@H](NC(=O)[C@H]1CCCCN1C(=O)[C@@H](NC(=O)[C@@H](N)Cc1cn(OC)c2ccccc12)[C@@H](C)CC)C(=O)O`, the values for the half-inhibitory concentration (IC50) against Histone deacetylase 4 [5] and on Histone deacetylase 4 [6] were 88 nM and 152 nM, respectively.
As to `O=C(/C=C/c1ccc(CN(CCO)CCc2c[nH]c3ccccc23)cc1)NO`, the outcome in test [1] and in test [3] was Active.
For the molecule `CCC(=O)CCCCC[C@H](NC(=O)[C@H]1CCCCN1C(=O)[C@@H](NC(=O)[C@@H](N)Cc1cn(OC)c2ccccc12)[C@H](C)CC)C(=O)O`, the result at Histone deacetylase 4 [2] and at Histone deacetylase 4 [4] was inactive.
